Experiment: Round table sweetness evaluation by test panelists (sucrose equivalent value, SEV)
Assay type: in vivo
Conditions: equal sweet 10 SEV concentrations in neutral pH water, room temperature; references 4%-14% sucrose
Method: Round table evaluations were performed with test panelists. Equal sweet 10 SEV concentrations in neutral pH water were made for allulose, AceK and fructose, as well as a composition comprising allulose, AceK and fructose. The components of the test compositions are described in the below tables. The mixed compositions were calculated using the Beidler mixture equation for the sweeteners. The Beidler mixture equation for sweeteners is as follows: […]
The concentration of each component in the mixture in ppm is divided by SEV (c/R) and is plotted against concentration, c. The slope of the linear regression is […]. The y-intercept of the linear regression multiplied by Rmax is the half-maximal sweetness concentration, 1/K. Rmax and 1/K are the two parameters used in the Beidler equation
The equal-molar mixture was tested against reference samples for the panelists to determine SEV values. […] The test samples were served in 2 ounce soufflé cups (approximately 60 ml) coded with 3-digit codes at room temperature. A two minute wait period between samples was enforced. Water and unsalted crackers was available for the panelists to clear their palates before and during testing. EyeQuestion, software distributed by Logic8 BV of Elst, The Netherlands, was used for ballot development and recording of results. Results were collected in EyeQuestion for calculating approximate SEV level of each test sample.
The test products analyzed in this experiment are described below in Table 1.

| Structure (SMILES) | Mean sucrose equivalent value (SEV), Mean 1 | Median sucrose equivalent value (SEV), Median 1 |
| --- | --- | --- |
| CC1=CC(=O)[N-]S(=O)(=O)O1.[K+] [AceK, potassium salt of 6-methyl-1,2,3-oxathiazine-4(3H)-one 2,2-dioxide] | 9.286 | 8 |
| O=C(CO)C(O)C(O)C(O)CO (stereo not drawn) [Allulose, allulose] | 10.14 | 10 |
| O=C(CO)[C@@H](O)[C@H](O)[C@H](O)CO [Fructose, fructose] | 10.14 | 10 |
